Reference: ChEMBL document CHEMBL1201862, “PubChem BioAssay data set” (2004)
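Where inhibition never reached the appropriate level, the endpoint shown equals the highest concentration tested. Otherwise, values were interpolated linearly from a five-concentration, 48-hour dose response in 96-well plates. At the GI50, growth is halved.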 Activity calls are given as the source filed them. Rule as the data show it: active = GI50 up to about 1.1 µM and inactive = higher.

Tests used:
Test in all cases: NCI-60 cell line screen, 48 h
HOP-92 = system: HOP-92
HCT-15 = system: HCT-15
RXF 393 = system: RXF 393
LOX IMVI = system: LOX IMVI
SNB-75 = system: SNB-75
NCI/ADR-RES = system: NCI/ADR-RES
OVCAR-8 = system: OVCAR-8
MDA-N = system: MDA-N
SNB-19 = system: SNB-19
UO-31 = system: UO-31
SK-MEL-28 = system: SK-MEL-28
COLO 205 = system: COLO 205
UACC-257 = system: UACC-257
DU-145 = system: DU-145
PC-3 = system: PC-3
IGROV-1 = system: IGROV-1
M14 = system: M14
MDA-MB-231 = system: MDA-MB-231
SK-MEL-2 = system: SK-MEL-2
U-251 = system: U-251
A498 = system: A498
KM12 = system: KM12
HCC 2998 = system: HCC 2998
A549 = system: A549
UACC-62 = system: UACC-62
NCI-H226 = system: NCI-H226
RPMI-8226 = system: RPMI-8226
K562 = system: K562
CAKI-1 = system: CAKI-1
CCRF-CEM = system: CCRF-CEM
TK-10 = system: TK-10
ACHN = system: ACHN
T47D = system: T47D
NCI-H23 = system: NCI-H23
SR = system: SR
SK-OV-3 = system: SK-OV-3
SF-295 = system: SF-295
SK-MEL-5 = system: SK-MEL-5
EKVX = system: EKVX
MCF7 = system: MCF7
HL-60 = system: HL-60
Hs-578T = system: Hs-578T
Malme-3M = system: Malme-3M
SW-620 = system: SW-620
NCI-H522 = system: NCI-H522
786-0 = system: 786-0
SN12C = system: SN12C
SF-268 = system: SF-268
NCI-H460 = system: NCI-H460
HCT-116 = system: HCT-116
OVCAR-3 = system: OVCAR-3
HOP-62 = system: HOP-62
OVCAR-4 = system: OVCAR-4
BT-549 = system: BT-549
OVCAR-5 = system: OVCAR-5
HT-29 = system: HT-29
MDA-MB-435 = system: MDA-MB-435

Measured: GI50

CC(CC(=O)O)(CC(=O)O)c1ccccc1
inactive: HOP-92 > 100 µM | RXF 393 > 100 µM | LOX IMVI > 100 µM | SNB-75 > 100 µM | NCI/ADR-RES > 100 µM | OVCAR-8 > 100 µM | MDA-N > 100 µM | SNB-19 > 100 µM | UO-31 > 100 µM | SK-MEL-28 > 100 µM | COLO 205 > 100 µM | UACC-257 > 100 µM | DU-145 > 100 µM | PC-3 > 100 µM | IGROV-1 > 100 µM | M14 > 100 µM | MDA-MB-231 > 100 µM | SK-MEL-2 > 100 µM | U-251 > 100 µM | A498 > 100 µM | KM12 > 100 µM | HCC 2998 > 100 µM | A549 > 100 µM | UACC-62 > 100 µM | NCI-H226 > 100 µM | RPMI-8226 > 100 µM | K562 50.2 µM | CAKI-1 > 100 µM | CCRF-CEM > 100 µM | TK-10 > 100 µM | ACHN > 100 µM | T47D > 100 µM | NCI-H23 > 100 µM | SR > 100 µM | SK-OV-3 > 100 µM | SF-295 > 100 µM | SK-MEL-5 > 100 µM | EKVX > 100 µM | MCF7 > 100 µM | HL-60 > 100 µM | Hs-578T > 100 µM | Malme-3M > 100 µM | SW-620 > 100 µM | NCI-H522 > 100 µM | 786-0 > 100 µM | SN12C > 100 µM | SF-268 > 100 µM | NCI-H460 > 100 µM | HCT-116 > 100 µM | OVCAR-3 > 100 µM | HOP-62 > 100 µM | OVCAR-4 > 100 µM | BT-549 > 100 µM | OVCAR-5 > 100 µM | HT-29 > 100 µM | MDA-MB-435 > 100 µM
> 100 µM: HCT-15
